Results on one compound are retold here after patent publication US11913884B2, “Visible light-activated dyes and methods of use thereof” (William Marsh Rice University, priority 2019, dated 2024).

Values joined by “and” are separate entries in the source; they are usually repeats but may differ in a detail not shown here. Equal values may be shown once.

The nature of this data set: Photoactivation (turn-on) of thio-caged fluorophores in solution by light irradiation. The data set is classed as physicochemical. The source says:
To determine whether a minimal one atom sulfur-for-oxygen substitution within fluorophores can lead to fluorescence quenching, thio-caged Nile Red (SNile Red, FIG. 1) was synthesized, in which a carbonyl group was replaced with a thiocarbonyl moiety. Treatment of Nile Red with Lawesson's reagent in refluxing benzene produced the desired SNile Red in a yield of 40%. […] Irradiation of SNile Red with red light (615 nm, 0.4 μW cm-2) led to the regeneration of fluorescent Nile Red in a high yield (FIG. 2A). The absorption maxima of SNile Red at 298, 368 and 652 nm were blue-shifted after desulfuration to 315 and 556 nm, in a good agreement with the absorption spectrum of authentic synthesized Nile Red (FIG. 2B). The A556/A652 value, representing the ratio of the absorbance maxima of Nile Red and SNile Red, increased from 0.25 to 30 after desulfuration reaction (FIG. 2B). Upon irradiation with red light, the fluorescence intensity of the desulfurated material at 626 nm increased 280-fold, accompanied by a change in fluorescence from dark to red (FIG. 2C). To evaluate the proper light source for SNile Red photoactivation, SNile Red was irradiated with either 470 nm, 615 nm, or 850 nm light for different times and fluorescence intensities at 626 nm were recorded. […] To further characterize the photoactivated product of SNile Red, ^1H NMR and ESI-MS spectral changes were measured in the process of photoactivation (FIG. 2A). […] Signals corresponding to phenyl moiety protons at 8.64, 8.62, 7.85, 7.73, 7.36, 7.04, and 6.79 ppm gradually disappeared, and were replaced by new signals appearing at 8.57, 8.13, 7.81, 7.72, 7.63, 6.85, 6.69 and 6.30 ppm, respectively. […] The photoactivated product was also characterized by ESI-mass spectrometric analysis FIG. 3). The observed m/z 319.2 corresponding to Nile Red confirms the photoactivation product of SNile Red is its oxo form. Both dialkylthioketones and diarylthioketones are known to undergo photo-oxidation reaction under oxygen and light to give the corresponding ketones (Coyle, 1985, Corsaro and Pistara, 1998). To investigate the effects of dissolved oxygen and light on the photoactivation of thio-caged fluorophores, the time profile of the fluorescence of SNile Red was measured in the presence or absence of light, or oxygen. […] To study the effect of oxygen during the photoactivation, the inventors prepared an oxygen-free SNile Red solution by bubbling nitrogen gas and irradiated at 615 nm. […] Inspired by the photoactivation mechanism of thioketones, it was hypothesized that singlet oxygen generated by self-sensitization can be the active species to oxidize thiocarbonyl groups within fluorophores (Coyle, 1985 and Corsaro and Pistara, 1998). […] The singlet oxygen quantum yield (DA) was further determined to be 0.36 with considering the absorption correction factor over the 600-630 nm region (Bonacin et al., 2009 and Adarsh et al., 2010) by referring to methylene blue (MB) (ΦΔ,MB=0.57 in dichloromethane; Li et al., 2013).
Encouraged by the excellent photoactivation properties of SNile Red, Lawesson's reagent was employed to introduce thiocarbonyl moieties into several different fluorophores, such as phthalimide (PI), coumarin (Cou) and acridone (ACD), obtaining yields ranging from 20-80% (FIG. 1). Next, characterization of the spectroscopic and photochemical properties of these thiocaged fluorophores and their oxidized products using UV-vis and fluorescence spectroscopies was performed (Table 1). […] Double thiocarbonyl substitution on 4-dimethylaminophthalimide (4-DMAP, FIG. 1) produced an even larger bathochromic shift of 166 nm. […] It was hypothesized that the red-shift and enhanced absorption seen with thiocarbonyl compounds were due to the reduced energy gap between the HOMO-LUMO in these fluorophores. This is consistent with the computational results discussed below. […]

Regarding `CCN(CC)c1ccc2nc3c4ccccc4c(=S)cc-3oc2c1` [SNile Red], the “fluorescence change at 626 nm with light of shorter wavelengths than 652 nm” value (470 nm or 615 nm light) is “significant fluorescence enhancement”. Also, the “increase of fluorescence intensity at 626 nm” value (615 nm light in air for 20 mins) is on record as 90 fold. Under “850 nm, after 5 hrs”, the “activation by light out of the absorbance range” value is “negligible activation”. Further, the “Turn-on (x-fold)” value (DMSO, footnote e: 470 nm, 0.4 μW cm^−2) is on record as 280^e x-fold. For the same compound, the A556/A652 value stood at 30 (after desulfuration reaction) and 0.25 (before desulfuration reaction). For the same compound, the “absorption maxima after desulfuration” value (after irradiation with red light (615 nm, 0.4 μW cm-2)) is 315 nm and 556 nm. The “change of fluorescent spectrum” value (in the absence of light) is listed as “no change”. Also, where the note is “oxygen-free solution (nitrogen bubbled), 615 nm, within 20 mins irradiation”, the “change of fluorescence intensity” value is reported as “no significant change”. Further, the “increase of fluorescence intensity at 626 nm (activation ratio)” value (upon irradiation with red light) is 280 fold.
